# Reference: patent US20260191838A1, “COMBINATIONS COMPRISING A MENIN-MLL INHIBITOR AND A BCL-2 INHIBITOR” (JANSSEN PHARMACEUTICA NV, priority 2022, published 2026)
# Columns and labels:
# [1] = tested on: KO-52 cells; experiment: Proliferation (spheroid) assay, KO-52 control cell line; type: cell-based; conditions: Homo sapiens, 192 h; 8 days; read-out: spheroid assay_KO-52 IC50
# Procedure: (§1) The anti-proliferative effect of menin/MLL protein/protein interaction inhibitor test compounds was assessed in human leukemia cell lines. The cell line MOLM14 harbors a MLL translocation and expresses the MLL fusion protein MLL-AF9, respectively, as well as the wildtype protein from the second allele. OCI-AML3 cells that carry the NPM1c gene mutation were also tested. […] KO-52 was used as a control cell line containing two MLL (KMT2A) wildtype alleles in order to exclude compounds that display general cytotoxic effects.
# (§2) MOLM14 cells were cultured in RPMI-1640 (Sigma Aldrich) supplemented with 10% heat-inactivated fetal bovine serum (HyClone), 2 mM L-glutamine (Sigma Aldrich) and 50 μg/ml gentamycin (Gibco). KO-52 and OCI-AML3 cell lines were propagated in alpha-MEM (Sigma Aldrich) supplemented with 20% heat-inactivated fetal bovine serum (HyClone), 2 mM L-glutamine (Sigma Aldrich) and 50 μg/ml gentamycin (Gibco).
# (§3) In order to assess the anti-proliferative effects, 200 MOLM14 cells, 200° C. […] Spheroid like growth was measured in real-time by live-cell imaging (IncuCyteZOOM, Essenbio, 4× objective) acquiring images at day 8. Confluence (%) as a measure of spheroid size was determined using an integrated analysis tool.
# (§4) In order to determine the effect of the test compounds over time, the confluence in each well as a measure of spheroid size, was calculated. […]
# [2] = tested on: OCI-AML3 cells; experiment: Proliferation (spheroid) assay, OCI-AML3; type: cell-based; conditions: Homo sapiens, OCI-AML-3, 192 h; 8 days; read-out: spheroid assay_OCI-AML3 IC50
# Procedure: as §1, §2, §3, §4
# [3] = tested on: MEIS1 mRNA; experiment: MEIS1 mRNA expression assay (Quantigene Singleplex) in MOLM14 cells; type: cell-based; conditions: Homo sapiens, MOLM-14, 48 hours
# Procedure: 2b) MEIS1 mRNA Expression Assay
# MEIS1 mRNA expression upon treatment of compound was examined by Quantigene Singleplex assay (Thermo Fisher Scientific). This technology allows for direct quantification of mRNA targets using probes hybridizing to defined target sequences of interest and the signal is detected using a Multimode plate reader Envision (PerkinElmer). The MOLM14 cell line was used for this experiment. Cells were plated in 96-well plates at 3,750 cells/well in the presence of increasing concentrations of compounds. After incubation of 48 hours with compounds, cells were lysed in lysis buffer and incubated for 45 minutes at 55° C. Cell lysates were mixed with human MEIS1 specific capture probe or human RPL28 (Ribosomal Protein L28) specific probe as a normalization control, as well as blocking probes. Cell lysates were then transferred to the custom assay hybridization plate (Thermo Fisher Scientific) and incubated for 18 to 22 hours at 55° C. Subsequently, plates were washed to remove unbound materials followed by sequential addition of preamplifiers, amplifiers, and label probe. Signals (=gene counts) were measured with a Multimode plate reader Envision. IC50s were calculated by dose-response modelling using appropriate software. For all non-housekeeper genes response equal counts corrected for background and relative expression. For each sample, each test gene signal (background subtracted) was divided by the normalization gene signal (RPL28: background subtracted). Fold changes were calculated by dividing the normalized values for the treated samples by the normalized values for the DMSO treated sample. Fold changes of each target gene were used for the calculation of IC50s.
# [4] = tested on: MOLM14 cells; experiment: Proliferation (spheroid) assay, MOLM14; type: cell-based; conditions: Homo sapiens, MOLM-14, 192 h, 8 days; read-out: spheroid assay_MOLM14 IC50
# Procedure: as §1, §2
# In order to assess the anti-proliferative effects, 200 MOLM14 cells, […] or 300 KO-52 cells were seeded in 200 μl media per well in 96-well round bottom, ultra-low attachment plates (Costar, catalogue number 7007). Cell seeding numbers were chosen based on growth curves to ensure linear growth throughout the experiment. Test compounds were added at different concentrations and the DMSO content was normalized to 0.3%. Cells were incubated for 8 days at 37° C. and 5% CO2. Spheroid like growth was measured in real-time by live-cell imaging (IncuCyteZOOM, Essenbio, 4× objective) acquiring images at day 8. Confluence (%) as a measure of spheroid size was determined using an integrated analysis tool.
# In order to determine the effect of the test compounds over time, the confluence in each well as a measure of spheroid size, was calculated. Confluence of the highest dose of a reference compound was used as baseline for the LC (Low control) and the confluence of DMSO treated cells was used as 0% cytotoxicity (High Control, HC).
# Absolute IC50 values were calculated as percent change in confluence as follows: • LC=Low Control: cells treated with e.g. 1 μM of the cytotoxic agent staurosporin, or e.g. cells treated with a high concentration of an alternative reference compound • HC═High Control: Mean confluence (%) (DMSO treated cells) • % Effect=100−(100*(Sample-LC)/(HC-LC))
# GraphPad Prism (version 7.00) was used to calculate the ICso. Dose-response equation was used for the plot of % Effect vs Log10 compound concentration with a variable slope and fixing the maximum to 100% and the minimum to 0%.
# [5] = Dynamic vapor sorption (DVS) moisture sorption analysis; type: physicochemical
# Procedure: Dynamic Vapor Sorption (DVS)
# The moisture sorption analysis (DVS) was performed using a ProUmid GmbH & Co.
# KG Vsorp Enhanced dynamic vapor sorption apparatus. The moisture profile was evaluated by monitoring vapor adsorption/desorption over the range of 0 to 90% relative humidity at 25° C. The sample weight equilibrium criteria were set at 0.01% change in 45 min with minimum and maximum time of acclimation at 50 min and 120 min, respectively. The moisture profile consisted of 2 cycles of vapor adsorption/desorption.
# [6] = common ambient RH of 40% to 75%
structure (smiles),measurement,setting,value
CC(=O)N1CCC(CN2CC[C@@H](Cc3cn(-c4ccc(F)cc4C(=O)N(C)C(C)C)c4cncc(C)c34)C2)CC1 [Compound 51a],IC50,[1],1200 nM
same,IC50,[2],70 nM
same,IC50,[3],11 nM
same,IC50,[4],13 nM
same,total moisture mass at equilibrium,[5]; [6],8.5-9.5%
same,water content at equilibrium,[5]; [6],around 3 equivalents of water
same,hygroscopicity (DVS change in mass plot),"[5]; crystalline HCl salt Form, 0 to 90% relative humidity, 25° C.",hygroscopic
same,solid-state form after DVS test (XRPD),[5]; fraction obtained after the DVS test compared to starting material,No indication of a solid-state form change
same,"moisture adsorbed and desorbed, on average","[5]; humidity range of 20-90% RH, 25° C.",up to 2.5 % by mass
